From PMC12867150, “A fungi-derived cyclic peptide enhances Th9-mediated antitumor immunity by targeting ZAP70 and SREBP1” (The Journal of Clinical Investigation, 2025)
Where “and” joins values, the source holds several entries; their conditions need not be identical. Identical values can stand only once.

Tests used:
[1] = test system: human Th9 CAR T cells; assay: Intracellular ATP of human Th9 CAR T cells (S9F); type: cell-based; details: result in words
Description: Intracellular adenosine triphosphate (ATP) levels were measured using a chemiluminescent ATP assay kit (Beyotime, catalog S0026) according to the manufacturer’s protocol. Briefly, cells were lysed and incubated with the luciferase-based detection reagent, and the resulting luminescent signal was detected using an Infinite M200 multimode microplate reader (TECAN). ATP concentrations were calculated based on a standard curve and normalized to cell number or protein content where applicable.
Ct EpA Fat Fat Ct EpA Fat Fat
(A) Flow-cytometric analysis of intracellular IL-9 expression in human Th9 cells […]
(B) Flow-cytometric assessment of mitochondrial mass using Mito Tracker in human Th9 cells treated as in (A) (n = 3).
(C) Flow-cytometric analysis of infection efficiency in Th9 cells transduced with a CD19-directed CAR lentivirus. (D and E) Flow-cytometric analysis of IL-9 expression in human Th9 CAR-T cells on days 5 and 6 of in vitro differentiation, showing representative plots (D) and quantification (E) (n = 3). […]
(G) Flow-cytometric analysis of mitochondrial mass using Mito Tracker in human Th9 CAR-T c e l l s (n = 3). (H and I) Flow-cytometric analysis of granzyme B⁺ CAR-Th9 cells isolated from spleens after adoptive transfer, showing representative plots (H) and quantification (I) (n = 5 mice per group). […]

[2] = test system: Th9 cells; assay: IL-9+ Th9 cells with MEK or ERK inhibition (Figure 5H); type: cell-based, mouse; details: for IL-9 (flow cytometric quantification): Figure 5H, individual replicates, (n = 5)
Description: (A) Identification and ranking of EpA-interacting proteins by affinity pulldown and LC-MS/MS, ordered by in silico binding energy predictions. […] (E) Flow-cytometric analysis of phosphorylated ZAP70 in Th9 cells 10 minutes after TCR activation (mean ± SEM, n = 3). (F) Pathway enrichment analysis of RNA-seq data showing MAPK/ERK-related pathways in EpA-treated Th9 cells. (G) Immunoblot analysis of total and phosphorylated MEK1/2 and ERK1/2 in control and EpA-treated Th9 cells. (H–L) Functional consequences of MEK or ERK inhibition in EpA-treated Th9 cells. […] Data in H–K are shown as mean ± SEM (n = 5) and in L as mean ± SEM (n = 3). Statistical significance was determined using 1-way ANOVA followed by Tukey’s test (E, H–L). *P < 0.05, **P < 0.01, ***P < 0.001, ****P < 0.0001.
T cell polarization was initiated under plate-bound anti-CD3 (2 μg/mL, clone 17A2, BioXCell, catalog BE0002) and soluble anti-CD28 (1 μg/mL, clone 37.51, BioXCell, catalog BE0015-1) stimulation, with the addition of cytokines and neutralizing antibodies specific to each subset. For Th9 cells, these included IL-4 (10 ng/mL, Peprotech, catalog 400-04), TGF-β (1 ng/mL, EPOTO Biotech, catalog HF-2021), anti–IL-12 (5 μg/mL, clone C17.8, BioXCell, catalog BE0051), and anti–IFN-γ (10 μg/mL, clone XMG1.2, BioXCell, catalog BE0055); for Th1 cells, these included IL-12 (10 ng/mL, GenScript, catalog Z03211-50) and anti–IL-4 (5 μg/mL, clone 11B11, BioXCell, catalog BE0045); for Th2 cells, these included IL-4 (50 ng/mL), anti–IFN-γ (20 μg /mL), anti–IL-12 (5 μg/mL), Th17 cells: IL-6 (20 ng/mL, EPOTO Biotech, catalog MF-1006), TGF-β (1 ng/mL), IL-1β (10 ng/mL, Peprotech, catalog AF-211-11B), anti–IFN-γ (10 μg/mL), anti–IL-12 (5 μg/mL), and anti–IL-4 (5 μg/mL); and for Tregs, these included TGF-β (3 ng/mL). After 3 days of initial culture, cells were either collected for downstream assays or continued in extended culture with refreshed cytokines to maintain lineage commitment.
The following pharmacological inhibitors were used at the indicated final concentrations: trametinib (MEK1/2 inhibitor; Selleck, catalog S4484) at 10 nM; temuterkib (ERK1/2 inhibitor; MCE, catalog HY-101494) at 100 nM; and fatostatin hydrobromide (SREBP inhibitor; MCE, catalog HY-14452A) at 5 μM. Dead cells were detected using Fixable Viability Dye eFluor 780 (eBioscience, catalog 65-0865).

[3] = test system: Th9 cells; assay: Seahorse extracellular acidification rate, glycolysis stress test (Figure 4B-D); type: cell-based, mouse; set-up: basal glycolysis of seahorse extracellular flux: unit not given here
Description: After stimulation, cells were washed, resuspended in Seahorse XF assay medium (Agilent Technologies; pH 7.40–7.45, catalog 103576-100) and seeded at 5 × 10^5 cells per well in Seahorse XF96 microplates. Plates were centrifuged at 400 × g for 5 minutes to promote adherence and monolayer formation, and all conditions were tested in quadruplicate.
Glycolytic activity was measured on a Seahorse XFe96 Extracellular Flux Analyzer (Agilent Technologies) using the XFe96 Glycolysis Stress Test kit (Agilent Technologies, catalog 103020-100) per the manufacturer’s instructions. Sequential injections of glucose (10 mM), oligomycin (1 μM), and 2-deoxyglucose (2-DG; 50 mM) were administered to determine ECAR as a proxy for glycolytic function. A glycolytic index was calculated from ECAR values obtained before and after each injection.

[4] = EpA 10 μM, 4 days, result in words

Substance: anteiso-C15 Leu7 surfactin [EpA]
- ATP output, Th9 CAR T [1]: elevated
- IL-9 (flow cytometric quantification) ([2]; EpA + ERKin combination): 5.8 and 5.06 and 4.72 and 7.22 and 6.36
- IL-9 (flow cytometric quantification) ([2]; EpA + MEKin combination): 0.49 and 3.03 and 0.46 and 0.71 and 0.77
- IL-9 (flow cytometric quantification) ([2]; single agent): 50.6 and 51.1 and 72.2 and 66.2 and 42.3
- IL-9 production ([2]; trametinib 10 nM, temuterkib 100 nM, result in words): unable to restore it
- basal and maximal ECAR [3, 4]: significantly elevated
- extracellular acidification rate (ECAR) [3, 4]: marked increase
- basal glycolysis of seahorse extracellular flux ([3]; Figure 4C, individual replicates, n = 6): 3.18 and 3.13 and 4.92 and 4.79 and 3.98 and 4.85
- max glycolytic capacity of seahorse extracellular flux ([3]; Figure 4D, individual replicates, n = 6, in mpH/min (unit assumed)): 34.82 and 36.26 and 48.55 and 43.93 and 34.44 and 51.9
